Source: patent publication US20250353891A1 (MEDIMMUNE LIMITED, priority 2022, published 2025)
Where “and” joins values, the source holds several entries; their conditions need not be identical. Equal entries are not always repeated. Starred links: 1 amine or outer side, 2 acyl side, 3 side chain; linkers in the order of their positions; H or OH if unused. Non-standard residues stand in square brackets, D forms with d. Residues, ends and D or L forms follow the SMILES beside them. Groups on a side chain read outwards from the residue. *: point of attachment. C20 diacid = O=C(O)CCCCCCCCCCCCCCCCCCC(=O)*; C18 diacid = O=C(O)CCCCCCCCCCCCCCCCC(=O)*; γGlu = O=C(O)[C@H](CCC(=O)[*:2])N[*:1]; αMeF = C[C@](N)(Cc1ccccc1)C(=O)O; AEEA = NCCOCCOCC(=O)O; Aib = CC(C)(N)C(=O)O

Experiments:
[1] = biological target: human GLP-1 receptor (hGLP-1R) (Homo sapiens, UniProt P43220); test: cAMP production (HTRF) in CHO cells expressing hGLP-1R; format: cell-based; design: expressed in transfected cells; details: for EC50: Table 6, peptides modified at position 17, cAMP in CHO hGLP-1R cells, geometric mean, read-out: hGLP-1R EC50; for % Relative Potency Ratio: Table 6, % GLP-1R activity relative to GLP-1 / % GlucR activity relative to glucagon
Chain of human GLP-1 receptor (hGLP-1R) (P43220 24-463): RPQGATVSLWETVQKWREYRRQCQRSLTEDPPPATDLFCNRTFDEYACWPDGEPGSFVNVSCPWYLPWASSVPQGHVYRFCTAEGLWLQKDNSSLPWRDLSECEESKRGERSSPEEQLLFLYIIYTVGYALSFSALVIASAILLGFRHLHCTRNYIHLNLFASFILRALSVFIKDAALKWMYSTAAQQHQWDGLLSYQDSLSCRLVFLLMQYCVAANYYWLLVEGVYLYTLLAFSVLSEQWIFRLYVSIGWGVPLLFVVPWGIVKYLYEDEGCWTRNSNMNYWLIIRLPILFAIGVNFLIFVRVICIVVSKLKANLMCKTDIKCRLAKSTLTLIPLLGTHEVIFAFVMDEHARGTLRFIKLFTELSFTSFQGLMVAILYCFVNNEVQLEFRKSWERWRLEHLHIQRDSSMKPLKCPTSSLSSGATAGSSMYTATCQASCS
How it was run: (§1)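 Potency values represent EC50 from 4-parameter logistic curves of HTRF % Delta F signal. Receptor-expressing CHO cells (hGCGR 2×10^5 cells/mL, hGLP-1R 1×10^5 cells/mL) were exposed for 30 min at room temperature before two-step cAMP detection.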

[2] = biological target: human glucagon receptor (hGCGR) (Homo sapiens, UniProt P47871); test: cAMP production (HTRF) in CHO cells expressing hGCGR; format: cell-based; design: expressed in transfected cells; details: Table 6, peptides modified at position 17; cAMP in CHO hGCGR cells; geometric mean; read-out: hGluc-R EC50
Chain of human glucagon receptor (hGCGR) (P47871 26-477): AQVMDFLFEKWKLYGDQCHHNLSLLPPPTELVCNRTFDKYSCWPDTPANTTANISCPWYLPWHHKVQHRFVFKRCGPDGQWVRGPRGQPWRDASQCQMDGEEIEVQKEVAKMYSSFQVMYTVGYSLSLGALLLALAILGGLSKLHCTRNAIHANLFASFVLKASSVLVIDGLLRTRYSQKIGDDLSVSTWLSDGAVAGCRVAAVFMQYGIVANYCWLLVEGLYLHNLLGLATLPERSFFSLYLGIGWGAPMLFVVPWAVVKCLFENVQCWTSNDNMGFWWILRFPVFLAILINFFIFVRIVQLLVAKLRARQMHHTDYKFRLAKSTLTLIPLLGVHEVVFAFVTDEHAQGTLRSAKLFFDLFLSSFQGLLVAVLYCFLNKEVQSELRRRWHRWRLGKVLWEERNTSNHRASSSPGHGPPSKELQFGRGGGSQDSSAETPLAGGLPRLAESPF
How it was run: as §1

Row | EC50 [1] | % Relative Potency Ratio [1] | EC50 [2] | Structure (SMILES)
1 | 0.304 nM | 2.2 | 0.333 nM | CC(C)C[C@H](NC(=O)[C@H](Cc1c[nH]c2ccccc12)NC(=O)[C@H](CCCNC(=N)N)NC(=O)[C@@H](NC(=O)[C@H](Cc1ccccc1)NC(=O)[C@H](CC(=O)O)NC(=O)[C@H](CCC(N)=O)NC(=O)[C@H](C)NC(=O)[C@H](CCCNC(=N)N)NC(=O)[C@H](CCCCNC(=O)COCCOCCNC(=O)COCCOCCNC(=O)CC[C@H](NC(=O)CCCCCCCCCCCCCCCCCCC(=O)O)C(=O)O)NC(=O)[C@H](CO)NC(=O)[C@H](CC(=O)O)NC(=O)[C@H](CC(C)C)NC(=O)[C@](C)(Cc1ccccc1)NC(=O)[C@H](CCCCN)NC(=O)[C@H](CO)NC(=O)[C@@H](NC(=O)[C@H](CC(=O)O)NC(=O)[C@H](CO)NC(=O)[C@@H](NC(=O)[C@H](Cc1ccccc1)NC(=O)[C@@H](NC(=O)CNC(=O)[C@H](CCC(N)=O)NC(=O)C(C)(C)NC(=O)[C@@H](N)Cc1c[nH]cn1)[C@@H](C)O)[C@@H](C)O)C(C)C)C(C)C)C(=O)N[C@@H](CC(C)C)C(=O)N[C@@H](CCC(=O)O)C(=O)NC(C)(C)C(=O)NCC(=O)O [Peptide 158] (H-H[Aib]QGTFTSDVSK[αMeF]LDSK([AEEA-AEEA-γGlu-C20 diacid])RAQDFVRWLLE[Aib]G-OH; N-terminus assumed)
2 | 0.145 nM | 2.0 | 0.145 nM | CC(C)C[C@H](NC(=O)[C@H](Cc1c[nH]c2ccccc12)NC(=O)[C@H](CCCNC(=N)N)NC(=O)[C@@H](NC(=O)[C@H](Cc1ccccc1)NC(=O)[C@H](CC(=O)O)NC(=O)[C@H](CCC(N)=O)NC(=O)[C@H](C)NC(=O)[C@H](CCCNC(=N)N)NC(=O)[C@H](CCCCNC(=O)COCCOCCNC(=O)COCCOCCNC(=O)CC[C@H](NC(=O)CCCCCCCCCCCCCCCCCCC(=O)O)C(=O)O)NC(=O)[C@@H](NC(=O)[C@H](CC(=O)O)NC(=O)[C@H](CC(C)C)NC(=O)[C@](C)(Cc1ccccc1)NC(=O)[C@H](CCCCN)NC(=O)[C@H](CO)NC(=O)[C@@H](NC(=O)[C@H](CC(=O)O)NC(=O)[C@H](CO)NC(=O)[C@@H](NC(=O)[C@H](Cc1ccccc1)NC(=O)[C@@H](NC(=O)CNC(=O)[C@H](CCC(N)=O)NC(=O)C(C)(C)NC(=O)[C@@H](N)Cc1c[nH]cn1)[C@@H](C)O)[C@@H](C)O)C(C)C)[C@@H](C)O)C(C)C)C(=O)N[C@@H](CC(C)C)C(=O)N[C@@H](CCC(=O)O)C(=O)NC(C)(C)C(=O)NCC(=O)O [Peptide 159]
3 | 0.0552 nM | 14.9 | 0.417 nM | CC(C)C[C@H](NC(=O)[C@H](Cc1c[nH]c2ccccc12)NC(=O)[C@H](CCCNC(=N)N)NC(=O)[C@@H](NC(=O)[C@H](Cc1ccccc1)NC(=O)[C@H](CC(=O)O)NC(=O)[C@H](CCC(N)=O)NC(=O)[C@H](C)NC(=O)[C@H](CCCNC(=N)N)NC(=O)[C@H](CCCCNC(=O)COCCOCCNC(=O)COCCOCCNC(=O)CC[C@H](NC(=O)CCCCCCCCCCCCCCCCC(=O)O)C(=O)O)NC(=O)[C@H](CO)NC(=O)[C@H](CCC(=O)O)NC(=O)[C@H](CC(C)C)NC(=O)[C@](C)(Cc1ccccc1)NC(=O)[C@H](CCCCN)NC(=O)[C@H](CO)NC(=O)[C@@H](NC(=O)[C@H](CC(=O)O)NC(=O)[C@H](CO)NC(=O)[C@@H](NC(=O)[C@H](Cc1ccccc1)NC(=O)[C@@H](NC(=O)CNC(=O)[C@H](CCC(N)=O)NC(=O)C(C)(C)NC(=O)[C@@H](N)Cc1c[nH]cn1)[C@@H](C)O)[C@@H](C)O)C(C)C)C(C)C)C(=O)N[C@@H](CC(C)C)C(=O)N[C@@H](CCC(=O)O)C(=O)NC(C)(C)C(=O)NCC(=O)O [Peptide 160] (H-H[Aib]QGTFTSDVSK[αMeF]LESK([AEEA-AEEA-γGlu-C18 diacid])RAQDFVRWLLE[Aib]G-OH)
4 | 0.0172 nM and 0.0509 nM | 21.6 and 40.0 | 0.188 nM and 1.03 nM | CC(C)C[C@H](NC(=O)[C@H](Cc1c[nH]c2ccccc12)NC(=O)[C@H](C)NC(=O)[C@@H](NC(=O)[C@H](Cc1ccccc1)NC(=O)[C@H](CC(=O)O)NC(=O)[C@H](CCCNC(=N)N)NC(=O)[C@H](C)NC(=O)[C@H](CCCNC(=N)N)NC(=O)[C@H](CCCCNC(=O)COCCOCCNC(=O)COCCOCCNC(=O)CC[C@H](NC(=O)CCCCCCCCCCCCCCCCC(=O)O)C(=O)O)NC(=O)[C@H](C)NC(=O)[C@H](CCC(=O)O)NC(=O)[C@H](CC(C)C)NC(=O)[C@](C)(Cc1ccccc1)NC(=O)[C@H](CCCCN)NC(=O)[C@H](CO)NC(=O)[C@@H](NC(=O)[C@H](CC(=O)O)NC(=O)[C@H](CO)NC(=O)[C@@H](NC(=O)[C@H](Cc1ccccc1)NC(=O)[C@@H](NC(=O)CNC(=O)[C@H](CCC(N)=O)NC(=O)C(C)(C)NC(=O)[C@@H](N)Cc1c[nH]cn1)[C@@H](C)O)[C@@H](C)O)C(C)C)C(C)C)C(=O)N[C@@H](CC(C)C)C(=O)N[C@@H](CCC(=O)O)C(=O)NC(C)(C)C(=O)NCC(=O)O [Peptide 161] (H-H[Aib]QGTFTSDVSK[αMeF]LEAK([AEEA-AEEA-γGlu-C18 diacid])RARDFVAWLLE[Aib]G-OH)
5 | 0.0596 nM | 34.1 | 1.03 nM | CC[C@H](C)[C@H](NC(=O)[C@H](Cc1c[nH]c2ccccc12)NC(=O)[C@H](CCCNC(=N)N)NC(=O)[C@@H](NC(=O)[C@H](Cc1ccccc1)NC(=O)[C@H](CC(=O)O)NC(=O)[C@H](CCC(N)=O)NC(=O)[C@H](C)NC(=O)[C@H](CCCNC(=N)N)NC(=O)[C@H](CCCCNC(=O)COCCOCCNC(=O)COCCOCCNC(=O)CC[C@H](NC(=O)CCCCCCCCCCCCCCCCC(=O)O)C(=O)O)NC(=O)[C@H](CO)NC(=O)[C@H](CC(=O)O)NC(=O)[C@H](CC(C)C)NC(=O)[C@](C)(Cc1ccccc1)NC(=O)[C@H](CCCCN)NC(=O)[C@H](CO)NC(=O)[C@@H](NC(=O)[C@H](CC(=O)O)NC(=O)[C@H](CO)NC(=O)[C@@H](NC(=O)[C@H](Cc1ccccc1)NC(=O)[C@@H](NC(=O)CNC(=O)[C@H](CCC(N)=O)NC(=O)C(C)(C)NC(=O)[C@@H](N)Cc1c[nH]cn1)[C@@H](C)O)[C@@H](C)O)C(C)C)C(C)C)C(=O)N[C@@H](C)C(=O)NC(C)(C)C(=O)N[C@H](C(=O)N[C@@H](CCC(=O)O)C(=O)O)[C@@H](C)O [Peptide 162] (H-H[Aib]QGTFTSDVSK[αMeF]LDSK([AEEA-AEEA-γGlu-C18 diacid])RAQDFVRWIA[Aib]TE-OH; N-terminus assumed)
6 | 0.0902 nM | 3.2 | 0.144 nM | CC(C)C[C@H](NC(=O)[C@H](Cc1c[nH]c2ccccc12)NC(=O)[C@H](CCCNC(=N)N)NC(=O)[C@@H](NC(=O)[C@H](Cc1ccccc1)NC(=O)[C@H](CC(=O)O)NC(=O)[C@H](CCC(N)=O)NC(=O)[C@H](C)NC(=O)[C@H](CCCNC(=N)N)NC(=O)[C@H](CCCCNC(=O)COCCOCCNC(=O)COCCOCCNC(=O)CC[C@H](NC(=O)CCCCCCCCCCCCCCCCC(=O)O)C(=O)O)NC(=O)[C@H](CO)NC(=O)[C@H](CC(=O)O)NC(=O)[C@H](CC(C)C)NC(=O)[C@](C)(Cc1ccccc1)NC(=O)[C@H](CCCCN)NC(=O)[C@H](CO)NC(=O)[C@@H](NC(=O)[C@H](CC(=O)O)NC(=O)[C@H](CO)NC(=O)[C@@H](NC(=O)[C@H](Cc1ccccc1)NC(=O)[C@@H](NC(=O)CNC(=O)[C@H](CCC(N)=O)NC(=O)C(C)(C)NC(=O)[C@@H](N)Cc1c[nH]cn1)[C@@H](C)O)[C@@H](C)O)C(C)C)C(C)C)C(=O)N[C@@H](CC(C)C)C(=O)N[C@@H](CCC(=O)O)C(=O)NC(C)(C)C(=O)N[C@@H](C)C(=O)O [Peptide 163] (H-H[Aib]QGTFTSDVSK[αMeF]LDSK([AEEA-AEEA-γGlu-C18 diacid])RAQDFVRWLLE[Aib]A-OH; N-terminus assumed)
7 | 0.0509 nM | 40.0 | 1.03 nM | CC(C)C[C@H](NC(=O)[C@H](Cc1c[nH]c2ccccc12)NC(=O)[C@H](CCCNC(=N)N)NC(=O)[C@@H](NC(=O)[C@H](Cc1ccccc1)NC(=O)[C@H](CC(=O)O)NC(=O)[C@H](CCC(N)=O)NC(=O)[C@H](C)NC(=O)[C@H](CCCNC(=N)N)NC(=O)[C@H](CCCCNC(=O)COCCOCCNC(=O)COCCOCCNC(=O)CC[C@H](NC(=O)CCCCCCCCCCCCCCCCC(=O)O)C(=O)O)NC(=O)[C@H](CO)NC(=O)[C@H](CC(=O)O)NC(=O)[C@H](CC(C)C)NC(=O)[C@](C)(Cc1ccccc1)NC(=O)[C@H](CCCCN)NC(=O)[C@H](CO)NC(=O)[C@@H](NC(=O)[C@H](CC(=O)O)NC(=O)[C@H](CO)NC(=O)[C@@H](NC(=O)[C@H](Cc1ccccc1)NC(=O)[C@@H](NC(=O)CNC(=O)[C@H](CCC(N)=O)NC(=O)C(C)(C)NC(=O)[C@@H](N)Cc1c[nH]cn1)[C@@H](C)O)[C@@H](C)O)C(C)C)C(C)C)C(=O)N[C@H](C(=O)NC(C)(C)C(=O)N[C@H](C(=O)N[C@@H](CCC(=O)O)C(=O)O)[C@@H](C)O)C(C)C [Peptide 165] (H-H[Aib]QGTFTSDVSK[αMeF]LDSK([AEEA-AEEA-γGlu-C18 diacid])RAQDFVRWLV[Aib]TE-OH; N-terminus assumed)
